Measured values published in article PMC3071873 (Journal of medicinal chemistry, 2010).
Where “and” joins values, the source holds several entries; their conditions need not be identical. Identical values can stand only once.

Legend:
human MAO B = target: T1, human MAO B (Homo sapiens, UniProt P27338); assay: Inhibition of purified recombinant human MAO B; type: biochemical; details: versus safinamide (ref 12)
T1 sequence (P27338 1-520): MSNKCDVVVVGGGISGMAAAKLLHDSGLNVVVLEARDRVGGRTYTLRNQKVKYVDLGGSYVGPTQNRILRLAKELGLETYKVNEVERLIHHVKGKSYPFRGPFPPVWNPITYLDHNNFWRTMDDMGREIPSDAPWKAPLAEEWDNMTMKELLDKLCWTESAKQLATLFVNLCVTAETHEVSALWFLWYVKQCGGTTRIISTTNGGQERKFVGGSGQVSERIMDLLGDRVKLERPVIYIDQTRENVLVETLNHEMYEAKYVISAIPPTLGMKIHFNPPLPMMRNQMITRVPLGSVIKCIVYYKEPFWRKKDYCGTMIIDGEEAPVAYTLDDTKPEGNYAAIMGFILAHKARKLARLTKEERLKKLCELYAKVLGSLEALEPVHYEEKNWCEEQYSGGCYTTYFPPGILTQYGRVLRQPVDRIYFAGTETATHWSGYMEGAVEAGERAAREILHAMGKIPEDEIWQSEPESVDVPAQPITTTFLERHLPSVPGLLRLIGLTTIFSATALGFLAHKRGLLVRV

[1] = target: rat monoamine oxidase (MAO) B; details: weak inhibitor; cited from earlier work
mouse MAO B = details: membrane-bound mouse MAO B; cited from earlier work
[2] = test system: toxic effect of 1-methyl-4-phenyl-tetrahydropyridine (MPTP); details: mice; cited from earlier work
[3] = humans, daily dosage of 25 mg; cited from earlier work
[4] = cited from earlier work
[5] = storage in solution; oxidative or hydrolytic degradation; cited from earlier work

## NS(=O)(=O)Cc1noc2ccccc12 [Zonisamide, 1,2-benzisoxazole-3-methanesulfonamide]
Human MAO B
  weaker Ki value with human MAO B compared to safinamide: ~ 6 fold
[1]
  Ki: 660 µM
Mouse MAO B
  IC50: 25 µM
[2]
  effect on MPTP toxicity: attenuates the toxic effect
[3]
  plasma (serum) concentration: ~ 0.6 μM and 0.6 μM
[4]
  brain tissue versus plasma concentrations: higher in brain tissues
[5]
  stability of aged solutions: lose inhibition potency on storage in solution
